Test results taken from patent publication EP1146873B1, “ANTI-ANDROGENS AND METHODS FOR TREATING DISEASE” (SMITHKLINE BEECHAM CORPORATION, priority 1999, dated 2000).

Experiments:
testosterone [1] = assay: Plasma testosterone concentration in male rats after oral dosing; assay type: in vivo; details: for plasma testosterone concentration: four daily oral doses ≥100 mg/kg, 4 hours after the last dose
Description: (§1) Four daily oral doses ≥100 mg/kg (S)-(-)-N-(α-Ethylbenzyl)-3-(3-carboxy)propoxy-2-phenylquinoline-4-carboxamide or (S)-(-)-N-(α-Ethylbenzyl)-3-carboxymethoxy-2-phenylquinoline-4-carboxamide reduced the plasma testosterone concentration of male rats when measured at 4 hours after the last dose. […] Reductions in plasma testosterone also occurred in male rats following single oral doses of 30 to 1000 mg/kg (S)-(-)-N-(α-Ethylbenzyl)-3-carboxymethoxy-2-phenylquinoline-4-carboxamide. Stimulation of testosterone production in vivo by a LH agonist (human chorionic gonadotropin) was not blocked by a single oral dose of 1000 mg/kg (S)-(-)-N-(α-Ethylbenzyl)-3-carboxymethoxy-2-phenylquinoline-4-carboxamide in male rats.

LH = assay: Plasma LH concentration in male rats after oral dosing; assay type: in vivo; details: four daily oral doses of 300 mg/kg, 4 hours after the last dose
Description: as §1

testosterone production = assay: Stimulation of testosterone production in vivo by a LH agonist (human chorionic gonadotropin) in male rats; details: single oral dose of 1000 mg/kg
Description: as §1

testosterone [2] = assay: Serum/plasma testosterone concentration in male dogs after oral or intravenous dosing; assay type: in vivo; details: for plasma concentration of testosterone: single intravenous dose of approximately 26 umoles/kg
estradiol = assay: Plasma estradiol concentration in male dogs; assay type: in vivo; details: for plasma estradiol concentration: single intravenous dose of approximately 26 umoles/kg
Source text: (§2) This effect was reversible and was associated with a reduction in serum concentration of luteinizing hormone (LH).

cortisol = assay: Plasma cortisol concentration in male dogs; assay type: in vivo; details: for plasma cortisol concentration: single intravenous dose of approximately 26 umoles/kg
Source text: as §2

testes and prostate = assay: Once daily oral administration for 1 month, reproductive organ effects in male beagle dogs; assay type: in vivo
Description: Once daily oral administration of ((S)-(-)-N-(α-Ethylbenzyl)-3-hydroxy-2-phenylquinoline-4-carboxamide) for 1 month to sexually mature male beagle dogs (12 - 16 months of age) produced decreases in the size and/or weight of testes and prostate. […] The incidence and severity of these changes were dose-related with 1 of 3, 2 of 3, 2 of 3, 6 of 6 and 3 of 3 male dogs affected at doses of 0.3, 3, 30, 300 or 1000 mg/kg per day, respectively.

reproductive organs [3] = assay: Once daily oral administration for 1 month, reproductive organ effects in male rats; assay type: in vivo; details: 0.1 to 1000 mg/kg per day
Description: (§3) Once daily oral administration of ((S)-(-)-N-(α-Ethylbenzyl)-3-hydroxy-2-phenylquinoline-4-carboxamide) for 1 month to male rats or for 2 weeks to male mice had no effect on the weights and/or histologic appearance of the reproductive organs. The daily doses ranged from 0.1 to 1000 mg/kg per day.

reproductive organs [4] = assay: Once daily oral administration for 2 weeks, reproductive organ effects in male mice; assay type: in vivo; details: 0.1 to 1000 mg/kg per day
Description: as §3

testosterone [5] = assay: Serum/plasma testosterone concentration in male dogs after oral or intravenous dosing; assay type: in vivo
Description: The ((S)-(-)-N-(α-Ethylbenzyl)-3-hydroxy-2-phenylquinoline-4-carboxamide)-dependent changes in the testes and prostate of male dogs were associated with reductions in serum concentration of testosterone. Testosterone concentrations were reduced after either a single oral dose of 300 mg/kg (3 of 3 dogs) or 25 daily oral doses of 0.3 (1 of 3 dogs), 3 (2 of 3 dogs) or 300 mg/kg ((S)-(-)-N-(α-Ethylbenzyl)-3-hydroxy-2-phenylquinoline-4-carboxamide) (3 of 3 dogs). Serum testosterone was measured on blood samples obtained every 2 hours for 24 hours after the single dose and every 20 minutes for 4 hours beginning approximately 2 hours after the last of the 25 daily doses. The reductions in serum testosterone observed after one or 25 daily doses of 300 mg/kg ((S)-(-)-N-(α-Ethylbenzyl)-3-hydroxy-2-phenylquinoline-4-carboxamide) were reversible in all dogs (6 of 6) within one week after the cessation of dosing.
as §2

luteinizing hormone (LH) = assay: Serum luteinizing hormone concentration in male dogs; assay type: in vivo; details: single oral dose of 300 mg/kg
Source text: as §2

androstenedione = assay: Plasma androstenedione concentration in male dogs; assay type: in vivo; details: single oral dose of 300 mg/kg
Source text: as §2

CYP17A1 = biological target: T1, CYP17A1 (Canis lupus familiaris, UniProt A0A8I3PR85); assay: Enzyme inhibition in lysed dog Leydig cells; assay type: biochemical
T1 construct: using lysed dog Leydig cells; from tissue; host or cells: lysate of primary Leydig cells isolated from dog testes
T1 sequence (A0A8I3PR85 19-509): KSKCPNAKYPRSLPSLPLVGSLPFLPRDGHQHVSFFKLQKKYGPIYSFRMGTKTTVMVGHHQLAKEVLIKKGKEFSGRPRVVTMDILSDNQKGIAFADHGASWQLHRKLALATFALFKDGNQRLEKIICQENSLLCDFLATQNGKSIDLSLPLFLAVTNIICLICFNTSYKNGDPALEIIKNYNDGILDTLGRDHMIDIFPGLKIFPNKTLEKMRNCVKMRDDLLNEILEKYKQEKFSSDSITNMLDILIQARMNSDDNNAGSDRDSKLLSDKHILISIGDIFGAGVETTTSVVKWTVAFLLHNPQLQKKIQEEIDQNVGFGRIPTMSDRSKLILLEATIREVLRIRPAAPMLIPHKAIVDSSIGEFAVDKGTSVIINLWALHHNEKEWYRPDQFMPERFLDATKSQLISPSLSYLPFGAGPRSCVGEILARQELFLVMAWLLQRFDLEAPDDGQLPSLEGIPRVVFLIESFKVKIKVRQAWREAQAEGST
Description: This effect occurred at incubation concentrations between 10 and 100 uM. […] Neither (S)-(-)-N-(α-Ethylbenzyl)-3-carboxymethoxy-2-phenylquinoline-4-carboxamide nor (S)-(-)-N-(α-Ethylbenzyl)-3-(3-carboxy)propoxy-2-phenylquinoline-4-carboxamide inhibited testosterone synthesis in Leydig cells isolated from the testis of the rat at the highest incubation concentration tested (300 uM). In contrast, (+)-(R)-3-[3-(4-Phenyl-4-N-methylacetamidopiperidin-1-yl)propyl]-3-(3,4-dichlorophenyl)-1-benzoylpiperidine, and (S)-(-)-N-(α-Ethylbenzyl)-3-[(4-methylpiperazin-1-yl)methyl]-2-phenylquinoline-4-carboxamide inhibited testosterone synthesis of isolated rat Leydig cells at incubation concentrations between 3 and 300 uM.

[6] = once daily oral, 1 month, male beagle dogs
[7] = single oral dose of 300 mg/kg, male dogs

## CC[C@H](NC(=O)c1c(OCC(=O)O)c(-c2ccccc2)nc2ccccc12)c1ccccc1 [(S)-(-)-N-(α-Ethylbenzyl)-3-carboxymethoxy-2-phenylquinoline-4-carboxamide]
Testosterone [1]
  plasma testosterone concentration: reduced
Testosterone [1]; single oral doses of 30 to 1000 mg/kg
  plasma testosterone: Reductions
LH
  plasma LH concentration: reduced
Testosterone production
  stimulation of testosterone production in vivo by a LH agonist (human chorionic gonadotropin): not blocked
Testosterone [2]
  plasma concentration of testosterone: reduced

## CC[C@H](NC(=O)c1c(OCCCN2CCN(c3ccccc3OC)CC2)c(-c2ccccc2)nc2ccccc12)c1ccccc1 [(S)-(-)-N-(α-Ethylbenzyl)-3-[3-[4-(2-methoxyphenyl)piperazin-1-yl]propoxy]-2-phenylquinoline-4-carboxamide]
estradiol
  plasma estradiol concentration: no effect
cortisol
  plasma cortisol concentration: did not lower
Testosterone [2]
  plasma concentration of testosterone: reduced

## CC(=O)N(C)C1(c2ccccc2)CCN(CCC[C@]2(c3ccc(Cl)c(Cl)c3)CCCN(C(=O)c3ccccc3)C2)CC1 [(+)-(R)-3-[3-(4-Phenyl-4-N-methylacetamidopiperidin-1-yl)propyl]-3-(3,4-dichlorophenyl)-1-benzoylpiperidine]
estradiol
  plasma estradiol concentration: no effect
cortisol
  plasma cortisol concentration: did not lower
Testosterone [2]
  plasma concentration of testosterone: reduced

## CC[C@H](NC(=O)c1c(OCCCC(=O)O)c(-c2ccccc2)nc2ccccc12)c1ccccc1 [(S)-(-)-N-(α-Ethylbenzyl)-3-(3-carboxy)propoxy-2-phenylquinoline-4-carboxamide]
Testosterone [1]
  plasma testosterone concentration: reduced

## CC[C@H](NC(=O)c1c(O)c(-c2ccccc2)nc2ccccc12)c1ccccc1 [(S)-(-)-N-(α-Ethylbenzyl)-3-hydroxy-2-phenylquinoline-4-carboxamide]
Testes and prostate; 0.3 mg/kg per day oral, 1 month
  male dogs affected (testes and prostate changes): 1 of 3
Testes and prostate; 3 mg/kg per day oral, 1 month
  male dogs affected (testes and prostate changes): 2 of 3
Testes and prostate; 30 mg/kg per day oral, 1 month
  male dogs affected (testes and prostate changes): 2 of 3
Testes and prostate; 300 mg/kg per day oral, 1 month
  male dogs affected (testes and prostate changes): 6 of 6
Testes and prostate; 1000 mg/kg per day oral, 1 month
  male dogs affected (testes and prostate changes): 3 of 3
Testes and prostate; male beagle dogs
  reversibility of testes and prostate changes: demonstrated
Testes and prostate; [6]
  histologic evaluation of prostate: diffuse atrophy of the prostate gland
  histologic evaluation of testes: degeneration of the seminiferous epithelium of the testes with depletion of spermatogonia, spermatocytes and spermatids
Testes and prostate; once daily oral, 1 month, sexually mature male beagle dogs
  size and/or weight of testes and prostate: decreases
Reproductive organs [3]
  weights and/or histologic appearance of the reproductive organs: no effect
Reproductive organs [4]
  weights and/or histologic appearance of the reproductive organs: no effect
Testosterone [5]; 25 daily oral doses of 0.3 mg/kg
  dogs with reduced serum testosterone concentration: 1 of 3
Testosterone [5]; 25 daily oral doses of 3 mg/kg
  dogs with reduced serum testosterone concentration: 2 of 3
Testosterone [5]; 25 daily oral doses of 300 mg/kg
  dogs with reduced serum testosterone concentration: 3 of 3
Testosterone [5]; after one or 25 daily doses of 300 mg/kg, within one week after cessation of dosing
  dogs in which reductions in serum testosterone were reversible: 6 of 6
Testosterone [5]; single oral dose of 300 mg/kg
  dogs with reduced serum testosterone concentration: 3 of 3
Testosterone [5]; [7]
  reversibility of decrease in serum testosterone: reversible
  serum concentration of testosterone: rapid and marked decrease
Luteinizing hormone (LH)
  serum concentration of luteinizing hormone (LH): reduction
androstenedione
  plasma concentration of androstenedione: reduced
estradiol; single oral dose of 300 mg/kg
  plasma concentration of estradiol: no effect
cortisol; single oral dose of 300 mg/kg
  plasma concentration of cortisol: no effect
CYP17A1
  inhibition of the enzyme (CYP17A1) in the testosterone synthetic pathway: inhibition
Testosterone [2]
  plasma concentration of testosterone: reduced
Testosterone [2]; single oral dose of 300 mg/kg, post-dose
  duration of decrease in serum testosterone: at least 24 hours
